Reference: ChEMBL document CHEMBL1201862, “PubChem BioAssay data set” (2004)
The source made the active and inactive calls. Cut-off read from the data, not from the text of the source: active = IC50 of 10 µM or less and inactive = more.

Tests used:
[1] = target: Neuropeptides B/W receptor type 1 (Homo sapiens, UniProt P48145); assay: GPR7 antagonist potency, late-stage follow-up, cell-based, fluorescence, dose response, set 5 (AID 588566); format: functional
[2] = target: Melanin-concentrating hormone receptor 1 (Homo sapiens, UniProt Q99705); assay: Late-stage fluorescence-based counterscreen for antagonists of the G-protein coupled receptor 7 (GPR7): cell-based dose response assay to identify antagonists of the melanin-concentrating hormone receptor 1 (MCHR1) Set 5.; format: functional
Sequence of Melanin-concentrating hormone receptor 1 (Q99705 whole entry): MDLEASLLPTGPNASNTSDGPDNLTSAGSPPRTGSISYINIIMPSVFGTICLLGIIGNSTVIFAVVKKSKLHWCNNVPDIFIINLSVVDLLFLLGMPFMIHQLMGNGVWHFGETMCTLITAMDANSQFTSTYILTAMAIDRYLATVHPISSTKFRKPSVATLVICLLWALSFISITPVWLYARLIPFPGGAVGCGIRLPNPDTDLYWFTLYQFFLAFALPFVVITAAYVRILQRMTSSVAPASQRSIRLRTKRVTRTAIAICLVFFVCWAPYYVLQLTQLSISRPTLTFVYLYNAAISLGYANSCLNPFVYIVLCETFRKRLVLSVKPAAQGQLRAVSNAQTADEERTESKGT

Sequence of Neuropeptides B/W receptor type 1 (P48145 whole entry): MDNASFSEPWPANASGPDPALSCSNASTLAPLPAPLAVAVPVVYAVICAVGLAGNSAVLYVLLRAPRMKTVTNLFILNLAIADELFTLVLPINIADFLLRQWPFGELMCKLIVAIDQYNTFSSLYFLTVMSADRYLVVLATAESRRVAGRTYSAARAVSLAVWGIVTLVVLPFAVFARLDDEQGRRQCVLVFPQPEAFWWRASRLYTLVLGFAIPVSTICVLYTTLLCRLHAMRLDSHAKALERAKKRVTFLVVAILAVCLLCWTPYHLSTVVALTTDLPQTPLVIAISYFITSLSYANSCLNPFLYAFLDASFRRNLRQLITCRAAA

IC50 [1]: 18.3 µM (inactive)
IC50 [2]: > 20 µM (inactive)
SMILES: CCOc1ccc(Oc2c(Br)nn(Cc3cccc4ccccc34)c(=O)c2Cl)cc1
